Test results taken from patent publication US20240158446A1, “CYCLIC COMPOUND HAVING SELECTIVE INHIBITORY ACTION ON KRAS OVER HRAS AND NRAS” (CHUGAI SEIYAKU KABUSHIKI KAISHA, priority 2021, published 2024).

What was measured:
[1] = target: GDP-bound NRAS wild-type protein (Homo sapiens, UniProt P01111); assay: Binding to NRAS by surface plasmon resonance (SPR), Single Cycle Kinetics; settings: for NRAS/KRAS (ratio of KD value for NRAS to KD value for KRAS): GDP-bound NRAS wild-type protein vs GDP-bound KRAS wild-type protein; for NRAS/KRAS (ratio of KD value with respect to GDP-bound NRAS wild-type protein to KD value with respect to KRAS): SPR KD ratio NRAS/KRAS, class symbols
Sequence of GDP-bound NRAS wild-type protein (P01111 whole entry): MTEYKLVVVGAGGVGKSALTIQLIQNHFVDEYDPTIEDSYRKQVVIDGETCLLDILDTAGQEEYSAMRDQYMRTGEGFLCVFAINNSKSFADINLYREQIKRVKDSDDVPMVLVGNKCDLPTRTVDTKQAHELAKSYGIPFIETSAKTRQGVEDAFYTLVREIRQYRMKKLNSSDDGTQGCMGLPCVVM

[2] = target: GDP-bound HRAS wild-type protein (Homo sapiens, UniProt P01112); assay: Binding to HRAS by surface plasmon resonance (SPR), Single Cycle Kinetics; settings: for HRAS/KRAS (ratio of KD value for HRAS to KD value for KRAS): GDP-bound HRAS wild-type protein vs GDP-bound KRAS wild-type protein; for HRAS/KRAS (ratio of KD value with respect to GDP-bound HRAS wild-type protein to KD value with respect to KRAS): SPR KD ratio HRAS/KRAS, class symbols
Sequence of GDP-bound HRAS wild-type protein (P01112 whole entry): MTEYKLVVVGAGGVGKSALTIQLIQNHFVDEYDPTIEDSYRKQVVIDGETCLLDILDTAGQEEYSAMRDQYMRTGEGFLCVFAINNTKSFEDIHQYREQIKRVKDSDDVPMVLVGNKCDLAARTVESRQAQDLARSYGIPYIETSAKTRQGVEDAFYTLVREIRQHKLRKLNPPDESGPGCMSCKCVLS

SMILES | NRAS/KRAS (ratio of KD value for NRAS to KD value for KRAS) ([1]; SPR) | HRAS/KRAS (ratio of KD value for HRAS to KD value for KRAS) ([2]; SPR) | NRAS/KRAS (ratio of KD value with respect to GDP-bound NRAS wild-type protein to KD value with respect to KRAS) [1] | HRAS/KRAS (ratio of KD value with respect to GDP-bound HRAS wild-type protein to KD value with respect to KRAS) [2] | also measured
CCCN(C)C(=O)[C@@H]1CC(=O)N(C)[C@@H](C2CC2)C(=O)N[C@@H]([C@@H](C)CC)C(=O)N(C)CC(=O)N(C)[C@H]2C/C=C\CCN(C2=O)[C@@H](Cc2ccc(C(F)(F)F)cc2)C(=O)N(C)CC(=O)N[C@@H](CCc2cc(F)c(C(F)(F)F)c(F)c2)C(=O)N2C[C@H](OCC)C[C@H]2C(=O)NC2(CC(C)(C)C2)C(=O)N(C)[C@@H](C2CCCC2)C(=O)N1C [PP2037] | A (a compound having 10 or more and less than 20 is denoted as A) | A (a compound having 10 or more and less than 20 is denoted as A) |  |  | 
CCOC[C@H]1C(=O)N[C@@H]([C@@H](C)CC)C(=O)N(C)CC(=O)N(C)[C@H]2C/C=C\CCN(C2=O)[C@@H](Cc2ccc(C(C)(F)F)cc2)C(=O)N(C)CC(=O)N[C@@H](CCc2ccc(C(F)(F)F)c(OC)c2)C(=O)N2C[C@@H](C)C[C@H]2C(=O)NC2(CC(C)(C)C2)C(=O)N(C)[C@@H](C2CCCC2)C(=O)N(C)[C@H](C(=O)N(C)CC)CC(=O)N1C [PP2699] |  |  | A (a compound having 10 or more and less than 20 is denoted as A) | B (a compound having 3 or more and less than 10 is denoted as B) | 
CCC[C@H]1C(=O)N[C@@H](C2CCCC2)C(=O)N(C)CC(=O)N(C)[C@H]2C/C=C\CCN(C2=O)[C@@H](Cc2ccc(C)cc2)C(=O)N(C)CC(=O)N[C@@H](CCc2ccc(C(F)(F)F)c(Cl)c2)C(=O)N2C[C@H](OCC)C[C@H]2C(=O)NC2(CC(C)(C)C2)C(=O)N(C)[C@@H](CC(F)(F)F)C(=O)N(C)[C@H](C(=O)N(C)C)CC(=O)N1C [PP2192] | A (a compound having 10 or more and less than 20 is denoted as A) | A (a compound having 10 or more and less than 20 is denoted as A) |  |  | 
CCC(CC)[C@H]1C(=O)N(C)[C@H](C(=O)N(C)C)CC(=O)N(C)[C@@H](COC)C(=O)N[C@@H]([C@@H](C)CC)C(=O)N(C)CC(=O)N(C)[C@H]2C/C=C\CCN(C2=O)[C@@H](Cc2ccc(C)cc2)C(=O)N(C)CC(=O)N[C@@H](CCc2ccc(C(F)(F)F)c(Cl)c2)C(=O)N2CCCC[C@H]2C(=O)NC2(CC(C)(C)C2)C(=O)N1C [PP2931] |  |  | A (a compound having 10 or more and less than 20 is denoted as A) | A (a compound having 10 or more and less than 20 is denoted as A) | 
C#CC[C@H]1C(=O)N[C@@H]([C@@H](C)CC)C(=O)N(C)CC(=O)N(C)[C@H]2C/C=C\CCN(C2=O)[C@@H](Cc2ccc(C)cc2)C(=O)N(C)CC(=O)N[C@@H](CCc2cc(F)c(C(F)(F)F)c(F)c2)C(=O)N2CC3(CC3)C[C@H]2C(=O)NC2(CC(C)(C)C2)C(=O)N(C)[C@@H](C2CCCC2)C(=O)N(C)[C@H](C(=O)N(C)C)CC(=O)N1C [PP2978] | A (a compound having 10 or more and less than 20 is denoted as A) | A (a compound having 10 or more and less than 20 is denoted as A) |  |  | 
CCC[C@H]1C(=O)N[C@@H]([C@@H](C)CC)C(=O)N(C)CC(=O)N(C)[C@H]2C/C=C\CCN(C2=O)[C@@H](Cc2ccc(C)cc2)C(=O)N(C)CC(=O)N[C@@H](CCc2ccc(C(F)(F)F)c(Cl)c2)C(=O)N2C[C@H](C)C[C@H]2C(=O)NC2(CC(C)(C)C2)C(=O)N(C)[C@@H](C2CCCC2)C(=O)N(C)[C@H](C(=O)N(C)C)CC(=O)N1C [PP2210] | A (a compound having 10 or more and less than 20 is denoted as A) | B (a compound having 3 or more and less than 10 is denoted as B) |  |  | 
CCC[C@H]1C(=O)N[C@@H]([C@@H](C)CC)C(=O)N(C)CC(=O)N(C)[C@H]2C/C=C\CCN(C2=O)[C@@H](Cc2ccc(C(F)(F)F)cc2)C(=O)N(C)CC(=O)N[C@@H](CCc2ccc(C(F)F)c(OC)c2)C(=O)N2C[C@H](OCC)C[C@H]2C(=O)NC2(CC(C)(C)C2)C(=O)N(C)[C@@H](C2CCCC2)C(=O)N(C)[C@H](C(=O)N(C)C)CC(=O)N1C [PP2868] |  |  | A (a compound having 10 or more and less than 20 is denoted as A) | A (a compound having 10 or more and less than 20 is denoted as A) | 
CCC[C@H]1C(=O)N[C@@H](C2CCCCC2)C(=O)N(C)CC(=O)N(C)[C@H]2C/C=C\CCN(C2=O)[C@@H](Cc2ccc(C)cc2)C(=O)N(C)CC(=O)N[C@@H](CCc2ccc(C(F)(F)F)c(Cl)c2)C(=O)N2C[C@H](OCC)C[C@H]2C(=O)NC2(CC(C)(C)C2)C(=O)N(C)[C@@H](CC(C)C)C(=O)N(C)[C@H](C(=O)N(C)C)CC(=O)N1C [PP3021] | AA (a compound having 20 or more is denoted as AA) | A (a compound having 10 or more and less than 20 is denoted as A) |  |  | 
CCO[C@@H]1C[C@H]2C(=O)NC3(CCC3)C(=O)N(C)[C@@H](C3CCCC3)C(=O)N(C)[C@H](C(=O)N3CCOCC3)CC(=O)N(C)[C@@H](CC(C)C)C(=O)N[C@@H]([C@@H](C)CC)C(=O)N(C)CC(=O)N(C)[C@H]3CC(C)=CCN(C3=O)[C@@H](Cc3ccc(C(F)(F)F)cc3)C(=O)N(C)CC(=O)N[C@@H](CCc3cc(F)c(C(F)(F)F)c(F)c3)C(=O)N2C1 [PP1039] | C (A compound having a KD ratio of 0.1 or more and less than 3 is denoted as C) | C (A compound having a KD ratio of 0.1 or more and less than 3 is denoted as C) |  |  | 
C#CC[C@H]1C(=O)N[C@@H]([C@@H](C)CC)C(=O)N(C)CC(=O)N(C)[C@H]2C/C=C\CCN(C2=O)[C@@H](Cc2ccc(C(F)(F)F)cc2)C(=O)N(C)CC(=O)N[C@@H](CCc2ccc(C(F)(F)F)c(OC)c2)C(=O)N2C[C@@H](C)C[C@H]2C(=O)NC2(CC(C)(C)C2)C(=O)N(C)[C@@H](C2CCCC2)C(=O)N(C)[C@H](C(=O)N(C)CCC)CC(=O)N1C [PP2057] | A (a compound having 10 or more and less than 20 is denoted as A) | A (a compound having 10 or more and less than 20 is denoted as A) |  |  | 
CCC[C@H]1C(=O)N[C@@H]([C@@H](C)CC)C(=O)N(C)CC(=O)N(C)[C@H]2C/C=C\CCN(C2=O)[C@@H](Cc2ccc(C(F)(F)F)cc2)C(=O)N(C)CC(=O)N[C@@H](CCc2ccc(C3CC3)c(C)c2)C(=O)N2C[C@H](OCC)C[C@H]2C(=O)NC2(CC(C)(C)C2)C(=O)N(C)[C@@H](C2CCCC2)C(=O)N(C)[C@H](C(=O)N(C)C)CC(=O)N1C [PP2855] |  |  | A (a compound having 10 or more and less than 20 is denoted as A) | A (a compound having 10 or more and less than 20 is denoted as A) | 
CCC[C@H]1C(=O)N[C@@H]([C@@H](C)CC)C(=O)N(C)CC(=O)N(C)[C@H]2C/C=C\CCN(C2=O)[C@@H](Cc2ccc(C(F)(F)F)cc2)C(=O)N(C)CC(=O)N[C@@H](CCc2ccc(CC)c(F)c2)C(=O)N2C[C@H](OCC)C[C@H]2C(=O)NC2(CC(C)(C)C2)C(=O)N(C)[C@@H](C2CCCC2)C(=O)N(C)[C@H](C(=O)N(C)C)CC(=O)N1C [PP2856] |  |  | A (a compound having 10 or more and less than 20 is denoted as A) | A (a compound having 10 or more and less than 20 is denoted as A) | 
CC[C@H](C)[C@@H]1NC(=O)[C@H](CC(C)C)N(C)C(=O)C[C@@H](C(=O)N(C)C)N(C)C(=O)[C@H](C2CCCC2)N(C)C(=O)C2(CC(C)(C)C2)NC(=O)[C@@H]2C[C@H](C)CN2C(=O)[C@H](CCc2ccc(C(F)(F)F)c(OC)c2)NC(=O)CN(C)C(=O)[C@H](Cc2ccc(C)cc2)N2CC/C=C\C[C@@H](C2=O)N(C)C(=O)CN(C)C1=O [PP1905] |  |  |  |  | NRAS/KRAS (KD ratio) ([1]; ratio of KD for GDP-bound NRAS wild-type protein to KD for KRAS, SPR): A (a compound having 10 or more and less than 20 is denoted as A); HRAS/KRAS (KD ratio) ([2]; ratio of KD for GDP-bound HRAS wild-type protein to KD for KRAS, SPR): A (a compound having 10 or more and less than 20 is denoted as A)
CCO[C@@H]1C[C@H]2C(=O)NC3(CCC3)C(=O)N(C)[C@@H](C3CCCC3)C(=O)N(C)[C@H](C(=O)N3CCOCC3)CC(=O)N(C)[C@@H](CC(C)C)C(=O)N[C@@H](C3CC(F)(F)C3)C(=O)N(C)CC(=O)N(C)[C@H]3CCCCCN(C3=O)[C@@H](Cc3ccc(C(F)(F)F)cc3)C(=O)N(C)CC(=O)N[C@@H](CCc3cc(F)c(C(F)(F)F)c(F)c3)C(=O)N2C1 [PP0816] | A (a compound having 10 or more and less than 20 is denoted as A) | B (a compound having 3 or more and less than 10 is denoted as B) |  |  | 
C=CCCC[C@H]1C(=O)N[C@@H]([C@@H](C)CC)C(=O)N(C)CC(=O)N(C)[C@H]2CCCCCN(C2=O)[C@@H](Cc2ccc(C(F)(F)F)cc2)C(=O)N(C)CC(=O)N[C@@H](CCc2cc(F)c(C(F)(F)F)c(F)c2)C(=O)N2C[C@H](OCC)C[C@H]2C(=O)N[C@](C)(CC=C)C(=O)N(C)[C@@H](C2CCCC2)C(=O)N(C)[C@H](C(=O)N2CCOCC2)CC(=O)N1C [PP0880] | B (a compound having 3 or more and less than 10 is denoted as B) | B (a compound having 3 or more and less than 10 is denoted as B) |  |  | 
CCOC[C@H]1C(=O)N[C@@H]([C@@H](C)CC)C(=O)N(C2CC2)CC(=O)N(C)[C@H]2C/C=C\CCN(C2=O)[C@@H](CC2CCCCC2)C(=O)N(C)CC(=O)N[C@@H](CCc2ccc(C(F)(F)F)c(OC)c2)C(=O)N2C[C@H](OCC)C[C@H]2C(=O)N(C)C2(CCC2)C(=O)N(C)[C@@H](C2CCCC2)C(=O)N(C)[C@H](C(=O)N(C)C)CC(=O)N1C [PP2342] | A (a compound having 10 or more and less than 20 is denoted as A) | A (a compound having 10 or more and less than 20 is denoted as A) |  |  | 
